In ChEMBL document CHEMBL1201862, “PubChem BioAssay data set” (2004):
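Five concentrations, 48 hours, 96-well plates. GI50 marks 50% less growth.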 Calls of active or inactive are those of the source. Rule as the data show it: active = GI50 up to about 1.1 µM and inactive = higher.

Assays:
Test in all cases: growth of human tumour cells (NCI), 48 h
OVCAR-5 = system: OVCAR-5
RXF 393 = system: RXF 393
ACHN = system: ACHN
OVCAR-8 = system: OVCAR-8
HCT-116 = system: HCT-116
HOP-62 = system: HOP-62
UACC-257 = system: UACC-257
786-0 = system: 786-0
RPMI-8226 = system: RPMI-8226
SK-MEL-5 = system: SK-MEL-5
SNB-75 = system: SNB-75
HL-60 = system: HL-60
U-251 = system: U-251
OVCAR-4 = system: OVCAR-4
HOP-92 = system: HOP-92
MOLT-4 = system: MOLT-4
NCI/ADR-RES = system: NCI/ADR-RES
NCI-H23 = system: NCI-H23
SR = system: SR
NCI-H226 = system: NCI-H226
SNB-19 = system: SNB-19
MDA-MB-231 = system: MDA-MB-231
M14 = system: M14
HT-29 = system: HT-29
MDA-MB-435 = system: MDA-MB-435
UACC-62 = system: UACC-62
LOX IMVI = system: LOX IMVI
CCRF-CEM = system: CCRF-CEM
IGROV-1 = system: IGROV-1
SK-OV-3 = system: SK-OV-3
NCI-H460 = system: NCI-H460
A549 = system: A549
HCC 2998 = system: HCC 2998
Hs-578T = system: Hs-578T
BT-549 = system: BT-549
KM12 = system: KM12
MDA-N = system: MDA-N
SK-MEL-2 = system: SK-MEL-2
HCT-15 = system: HCT-15
SF-539 = system: SF-539
A498 = system: A498
SN12C = system: SN12C
CAKI-1 = system: CAKI-1
SW-620 = system: SW-620
COLO 205 = system: COLO 205
DU-145 = system: DU-145
OVCAR-3 = system: OVCAR-3
PC-3 = system: PC-3
SK-MEL-28 = system: SK-MEL-28
K562 = system: K562
EKVX = system: EKVX
MCF7 = system: MCF7
SF-295 = system: SF-295
UO-31 = system: UO-31
SF-268 = system: SF-268
NCI-H522 = system: NCI-H522
TK-10 = system: TK-10

## O=C(N/N=C1/C(=O)c2c3ccccc3cc3cccc1c23)c1cccc(Cl)c1
OVCAR-5
  GI50: > 100 µM (inactive)
RXF 393
  GI50: > 100 µM (inactive)
ACHN
  GI50: 33 µM (inactive)
OVCAR-8
  GI50: > 100 µM (inactive)
HCT-116
  GI50: > 100 µM (inactive)
HOP-62
  GI50: 28.9 µM (inactive)
UACC-257
  GI50: > 100 µM (inactive)
786-0
  GI50: 56.6 µM (inactive)
RPMI-8226
  GI50: > 100 µM (inactive)
SK-MEL-5
  GI50: > 100 µM (inactive)
SNB-75
  GI50: > 100 µM (inactive)
HL-60
  GI50: > 100 µM (inactive)
U-251
  GI50: 94.8 µM (inactive)
OVCAR-4
  GI50: > 100 µM (inactive)
HOP-92
  GI50: > 100 µM (inactive)
MOLT-4
  GI50: 711 nM (active)
NCI/ADR-RES
  GI50: > 100 µM (inactive)
NCI-H23
  GI50: > 100 µM (inactive)
SR
  GI50: > 100 µM (inactive)
NCI-H226
  GI50: > 100 µM (inactive)
SNB-19
  GI50: 41.4 µM (inactive)
MDA-MB-231
  GI50: > 100 µM (inactive)
M14
  GI50: > 100 µM (inactive)
HT-29
  GI50: > 100 µM (inactive)
MDA-MB-435
  GI50: > 100 µM (inactive)
UACC-62
  GI50: 69.7 µM (inactive)
LOX IMVI
  GI50: > 100 µM (inactive)
CCRF-CEM
  GI50: 67.6 µM (inactive)
IGROV-1
  GI50: 2.78 µM (inactive)
SK-OV-3
  GI50: > 100 µM (inactive)
NCI-H460
  GI50: 79.4 µM (inactive)
A549
  GI50: > 100 µM (inactive)
HCC 2998
  GI50: > 100 µM (inactive)
Hs-578T
  GI50: 16 µM (inactive)
BT-549
  GI50: > 100 µM (inactive)
KM12
  GI50: > 100 µM (inactive)
MDA-N
  GI50: > 100 µM (inactive)
SK-MEL-2
  GI50: > 100 µM (inactive)
HCT-15
  GI50: > 100 µM
SF-539
  GI50: 90.2 µM (inactive)
A498
  GI50: > 100 µM (inactive)
SN12C
  GI50: > 100 µM (inactive)
CAKI-1
  GI50: > 100 µM (inactive)
SW-620
  GI50: > 100 µM (inactive)
COLO 205
  GI50: > 100 µM (inactive)
DU-145
  GI50: 70.3 µM (inactive)
OVCAR-3
  GI50: > 100 µM (inactive)
PC-3
  GI50: > 100 µM (inactive)
SK-MEL-28
  GI50: > 100 µM (inactive)
K562
  GI50: > 100 µM (inactive)

## CN1C(=O)c2c(ccc3c2OCO3)C2C(O)Cc3cc4c(cc3C21)OCO4 (stereo not drawn)
OVCAR-5
  GI50: > 100 µM (inactive)
ACHN
  GI50: 7.21 µM (inactive)
OVCAR-8
  GI50: 5.11 µM (inactive)
HCT-116
  GI50: 4.34 µM (inactive)
EKVX
  GI50: 3.28 µM (inactive)
786-0
  GI50: 4.17 µM (inactive)
RPMI-8226
  GI50: 3.83 µM (inactive)
SK-MEL-5
  GI50: 5.51 µM (inactive)
SNB-75
  GI50: 1.89 µM (inactive)
HL-60
  GI50: 2.4 µM (inactive)
U-251
  GI50: 4.29 µM (inactive)
OVCAR-4
  GI50: > 100 µM (inactive)
HOP-92
  GI50: 5.79 µM (inactive)
MOLT-4
  GI50: 4040 nM (inactive)
NCI/ADR-RES
  GI50: 3.03 µM (inactive)
NCI-H23
  GI50: 5.58 µM (inactive)
NCI-H226
  GI50: 2.15 µM (inactive)
SNB-19
  GI50: 3.21 µM (inactive)
MDA-MB-231
  GI50: 3.38 µM (inactive)
M14
  GI50: 5.78 µM (inactive)
HT-29
  GI50: 3.3 µM (inactive)
MCF7
  GI50: 7.5 µM (inactive)
MDA-MB-435
  GI50: 1.61 µM (inactive)
UACC-62
  GI50: 3.36 µM (inactive)
LOX IMVI
  GI50: 9.12 µM (inactive)
CCRF-CEM
  GI50: 3.37 µM (inactive)
IGROV-1
  GI50: 2.36 µM (inactive)
SK-OV-3
  GI50: 2.98 µM (inactive)
NCI-H460
  GI50: 3.4 µM (inactive)
A549
  GI50: 5.96 µM (inactive)
HCC 2998
  GI50: 4.06 µM (inactive)
Hs-578T
  GI50: 5.26 µM (inactive)
BT-549
  GI50: 13.8 µM (inactive)
KM12
  GI50: 3.15 µM (inactive)
MDA-N
  GI50: 1.91 µM (inactive)
SK-MEL-2
  GI50: 2.47 µM (inactive)
HCT-15
  GI50: 3.73 µM
SF-539
  GI50: 4.57 µM (inactive)
SF-295
  GI50: 1.71 µM (inactive)
UO-31
  GI50: 6.37 µM (inactive)
A498
  GI50: 3.18 µM (inactive)
SN12C
  GI50: 4.15 µM (inactive)
CAKI-1
  GI50: 4.76 µM (inactive)
SF-268
  GI50: 8.75 µM (inactive)
NCI-H522
  GI50: 2.87 µM (inactive)
SW-620
  GI50: 3.79 µM (inactive)
COLO 205
  GI50: 3.88 µM (inactive)
DU-145
  GI50: 3.65 µM (inactive)
OVCAR-3
  GI50: 5.2 µM (inactive)
PC-3
  GI50: 2.58 µM (inactive)
SK-MEL-28
  GI50: 3.22 µM (inactive)
TK-10
  GI50: 7.8 µM (inactive)
K562
  GI50: 4.71 µM (inactive)
